{"source": "patent US20180140572A1", "about": "“COMPOSITIONS COMPRISING A CANCER STEMNESS INHIBITOR AND AN IMMUNOTHERAPEUTIC AGENT FOR USE IN TREATING CANCER” (Boston Biomedical, Inc., priority 2015, published 2018)", "key": {"[1]": {"tested_on": "FaDu sphere cultures", "assay": "qPCR cancer stem cell array in FaDu sphere cultures", "type": "cell-based", "set-up": "% Change ATM / % Change MERTK / % Change NOTCH2 / % Change LATS1 / % Change ITGA2 / % Change SMO / % Change TGFBR1 / % Change MAML1 / % Change WWC1 / % Change ITGA6 / % Change ITGB1 / % Change AXL / % Change KITLG / % Change JAK2 / % Change YAP1 / % Change BMI1 / % Change NOTCH1 / % Change ATXN1 / % Change ERBB2 / % Change SIRT1 / % Change WEE1 / % Change FGFR2 / % Change DDR1 / % Change GSK3B / % Change ENG / % Change DACH1 / % Change ALCAM / % Change HDAC1 / % Change CD44 / % Change HPRT1 / % Change IKBKB / % Change DNMT1 / % Change ETFA / % Change FOXP1 / % Change FLOT2 / % Change CHEK1 / % Change MUC1 / % Change CD24 / % Change NFKB1 / % Change NANOG / % Change ACTB / % Change EPCAM / % Change STAT3 / % Change TWIST2 / % Change PLAUR / % Change EGF / % Change ALDH1A1 / % Change RPLP0 / % Change TAZ / % Change JAG1 / % Change KLF17 / % Change ID1 / % Change ITGA4 / % Change IL8 / % Change MYC / % Change CD34 / % Change LIN28A / % Change POU5F1 / % Change PECAM1: dose or concentration left out as unconfirmed", "details": "6 hours, normalized to GAPDH", "experimental": "The changes in gene expression following treatment with BBI608 were analyzed. FaDu sphere cultures were treated for 6 hours with DMSO (control) or BBI608 at […]. Total RNA was isolated, reversed transcribed and the generated cDNA was analyzed using a qPCR cancer stem cell array. Data was normalized to the expression of the house keeping gene, GAPDH."}, "[2]": {"tested_on": "IDO1", "assay": "IDO1 protein levels in SKOV3 cells", "type": "cell-based"}, "[3]": {"tested_on": "CD8^+ T cells", "assay": "Tumor infiltrating CD8+ T cells in Apc^Min/+ mouse model of colon cancer (immunofluorescence)", "type": "in vivo, Apc^Min/+ C57BL/6J mice", "details": "BBI608 200 mg/kg p.o. q.d. 4 days, vs control group", "experimental": "At the end of treatment, tumors were harvested from euthanized mice. Part of the dissected tumors were fixed overnight in 3.7% or 10% neutral buffered formaldehyde at 4° C., and then paraffin embedded, cut to 4-5 micron sections, and affixed onto positively charged slides. After baking and deparaffinization, the slides with tumor or control tissues were incubated in a 10 mM sodium citrate solution pH=6.0 for antigen retrieval at 98° C. […] After mounting in ProLong mounting medium containing DAPI (Invitrogen), the slides were examined on a Zeiss Axio Imager M2 upright fluorescence microscope with a 20× objective and analyzed with Zen software.\nAll animals were housed in Association for Assessment and Accreditation of Laboratory Animal Care-approved facilities in static microisolator cages. […] Body weight and clinical signs were monitored throughout the course of the treatment. […]\nCD8^+ levels were analyzed by immunofluorescence."}}, "data": [{"compound": "CC(=O)c1cc2c(o1)C(=O)c1ccccc1C2=O", "note": "[BBI608, 2-acetylnaphtho[2,3-b]furan-4,9-dione]", "values": [{"measurement": "% Change ACTB", "setting": "[1]; gene ACTB", "value": "−24.49", "unit": "%"}, {"measurement": "% Change ALCAM", "setting": "[1]; gene ALCAM", "value": "−36.13", "unit": "%"}, {"measurement": "% Change ALDH1A1", "setting": "[1]; gene ALDH1A1", "value": "−18.18", "unit": "%"}, {"measurement": "% Change ATM", "setting": "[1]; gene ATM", "value": "−68.65", "unit": "%"}, {"measurement": "% Change ATXN1", "setting": "[1]; gene ATXN1", "value": "−45.26", "unit": "%"}, {"measurement": "% Change AXL", "setting": "[1]; gene AXL", "value": "−48.50", "unit": "%"}, {"measurement": "% Change B2M", "setting": "[1]; gene B2M", "value": "−27.69", "unit": "%"}, {"measurement": "% Change BMI1", "setting": "[1]; gene BMI1", "value": "−47.40", "unit": "%"}, {"measurement": "% Change CD24", "setting": "[1]; gene CD24", "value": "−26.46", "unit": "%"}, {"measurement": "% Change CD34", "setting": "[1]; gene CD34", "value": "−88.18", "unit": "%"}, {"measurement": "% Change CD44", "setting": "[1]; gene CD44", "value": "−35.44", "unit": "%"}, {"measurement": "% Change CHEK1", "setting": "[1]; gene CHEK1", "value": "−28.88", "unit": "%"}, {"measurement": "% Change DACH1", "setting": "[1]; gene DACH1", "value": "−36.55", "unit": "%"}, {"measurement": "% Change DDR1", "setting": "[1]; gene DDR1", "value": "−38.59", "unit": "%"}, {"measurement": "% Change DNMT1", "setting": "[1]; gene DNMT1", "value": "−32.09", "unit": "%"}, {"measurement": "% Change EGF", "setting": "[1]; gene EGF", "value": "−19.07", "unit": "%"}, {"measurement": "% Change ENG", "setting": "[1]; gene ENG", "value": "−37.62", "unit": "%"}, {"measurement": "% Change EPCAM", "setting": "[1]; gene EPCAM", "value": "−22.87", "unit": "%"}, {"measurement": "% Change ERBB2", "setting": "[1]; gene ERBB2", "value": "−43.81", "unit": "%"}, {"measurement": "% Change ETFA", "setting": "[1]; gene ETFA", "value": "−31.12", "unit": "%"}, {"measurement": "% Change FGFR2", "setting": "[1]; gene FGFR2", "value": "−41.18", "unit": "%"}, {"measurement": "% Change FLOT2", "setting": "[1]; gene FLOT2", "value": "−29.19", "unit": "%"}, {"measurement": "% Change FOXP1", "setting": "[1]; gene FOXP1", "value": "−29.76", "unit": "%"}, {"measurement": "% Change GSK3B", "setting": "[1]; gene GSK3B", "value": "−38.06", "unit": "%"}, {"measurement": "% Change HDAC1", "setting": "[1]; gene HDAC1", "value": "−36.10", "unit": "%"}, {"measurement": "% Change HPRT1", "setting": "[1]; gene HPRT1", "value": "−33.81", "unit": "%"}, {"measurement": "% Change ID1", "setting": "[1]; gene ID1", "value": "−12.68", "unit": "%"}, {"measurement": "% Change IKBKB", "setting": "[1]; gene IKBKB", "value": "−32.11", "unit": "%"}, {"measurement": "% Change IL8", "setting": "[1]; gene IL8", "value": "−7.62", "unit": "%"}, {"measurement": "% Change ITGA2", "setting": "[1]; gene ITGA2", "value": "−60.71", "unit": "%"}, {"measurement": "% Change ITGA4", "setting": "[1]; gene ITGA4", "value": "−11.52", "unit": "%"}, {"measurement": "% Change ITGA6", "setting": "[1]; gene ITGA6", "value": "−54.63", "unit": "%"}, {"measurement": "% Change ITGB1", "setting": "[1]; gene ITGB1", "value": "−50.45", "unit": "%"}, {"measurement": "% Change JAG1", "setting": "[1]; gene JAG1", "value": "−14.24", "unit": "%"}, {"measurement": "% Change JAK2", "setting": "[1]; gene JAK2", "value": "−47.94", "unit": "%"}, {"measurement": "% Change KITLG", "setting": "[1]; gene KITLG", "value": "−47.99", "unit": "%"}, {"measurement": "% Change KLF17", "setting": "[1]; gene KLF17", "value": "−90.18", "unit": "%"}, {"measurement": "% Change LATS1", "setting": "[1]; gene LATS1", "value": "−60.75", "unit": "%"}, {"measurement": "% Change LIN28A", "setting": "[1]; gene LIN28A", "value": "−87.52", "unit": "%"}, {"measurement": "% Change MAML1", "setting": "[1]; gene MAML1", "value": "−52.82", "unit": "%"}, {"measurement": "% Change MERTK", "setting": "[1]; gene MERTK", "value": "−65.78", "unit": "%"}, {"measurement": "% Change MUC1", "setting": "[1]; gene MUC1", "value": "−27.42", "unit": "%"}, {"measurement": "% Change MYC", "setting": "[1]; gene MYC", "value": "−3.91", "unit": "%"}, {"measurement": "% Change NANOG", "setting": "[1]; gene NANOG", "value": "−93.34", "unit": "%"}, {"measurement": "% Change NFKB1", "setting": "[1]; gene NFKB1", "value": "−25.54", "unit": "%"}, {"measurement": "% Change NOTCH1", "setting": "[1]; gene NOTCH1", "value": "−46.24", "unit": "%"}, {"measurement": "% Change NOTCH2", "setting": "[1]; gene NOTCH2", "value": "−64.37", "unit": "%"}, {"measurement": "% Change PECAM1", "setting": "[1]; gene PECAM1", "value": "−70.26", "unit": "%"}, {"measurement": "% Change PLAUR", "setting": "[1]; gene PLAUR", "value": "−20.64", "unit": "%"}, {"measurement": "% Change POU5F1", "setting": "[1]; gene POU5F1", "value": "−77.31", "unit": "%"}, {"measurement": "% Change RPLP0", "setting": "[1]; gene RPLP0", "value": "−17.48", "unit": "%"}, {"measurement": "% Change SIRT1", "setting": "[1]; gene SIRT1", "value": "−43.35", "unit": "%"}, {"measurement": "% Change SMO", "setting": "[1]; gene SMO", "value": "−55.56", "unit": "%"}, {"measurement": "% Change STAT3", "setting": "[1]; gene STAT3", "value": "−22.87", "unit": "%"}, {"measurement": "% Change TAZ", "setting": "[1]; gene TAZ", "value": "−15.09", "unit": "%"}, {"measurement": "% Change TGFBR1", "setting": "[1]; gene TGFBR1", "value": "−53.34", "unit": "%"}, {"measurement": "% Change TWIST2", "setting": "[1]; gene TWIST2", "value": "−21.59", "unit": "%"}, {"measurement": "% Change WEE1", "setting": "[1]; gene WEE1", "value": "−42.86", "unit": "%"}, {"measurement": "% Change WWC1", "setting": "[1]; gene WWC1", "value": "−51.64", "unit": "%"}, {"measurement": "% Change YAP1", "setting": "[1]; gene YAP1", "value": "−47.45", "unit": "%"}, {"measurement": "IDO1 protein levels", "setting": "[2]; 8 or 24 hours", "value": "reduced"}, {"measurement": "IDO1 protein levels", "setting": "[2]; 3 hours", "value": "reduced"}, {"measurement": "number of tumor infiltrating CD8^+ T cells", "setting": "[3]", "value": "increased the number of tumor infiltrating CD8^+ T cells significantly"}]}]}
